Test results published in patent publication US20070110813A1, “Polycation-polyanion complexes, compositions and methods of use thereof” (priority 2005, published 2007).
Entries after “also recorded” stand apart in the source; their conditions may differ. Like-named read-outs stand apart in the source and are kept apart here.

How the values were obtained:
sheep lungs = type: in vivo
Method: Polylysine was delivered to 12 pulmonary subsegments via a bronchoscope in a fibrin gel matrix at 100 mg, 30 mg and 10 mg per subsegment (groups 1, 2 and 3 in FIG. 1). The molecular weight of the polylysine used was 20,000-80,000 Da with an average molecular weight of 55,000 Da. A total of 10 sheep were thus treated.
The characteristic lesion caused by polylysine is renal infarction, consistent with what has been reported in the literature for polycationic injury. In the animals tested with baseline normal renal function, renal damage resulting from cationic injury remains subclinical. […] Thus, these clinical pathology tests were not sufficiently sensitive to detect polycationic renal injury resulting from polylysine. Polycationic renal toxicity following pulmonary treatment is initiated and can be detected only at necropsy within days of treatment. […] The characteristic acute lesion appeared to be renal infarction with associated hemorrhage. Lesions occurred within days (3-7 days) of cationic exposure. Necropsy findings are the most sensitive markers of toxicity.
4 sheep were treated at 12 pulmonary subsegments each with a fibrin gel containing 100 mg chondroitin sulfate (Group 5 in FIG. 1). 2 animals were sacrificed at 8 days and the remaining 2 animals were sacrificed at 4 weeks. […] However, pulmonary responses in these animals were minimal, indicating poor efficacy.
In a series of 4 sheep experiments (Group 6 in FIG. 1), in-situ precipitation of chondroitin sulfate and polylysine solutions was achieved as they exit a dual lumen catheter. Chondroitin sulfate was added to a fibrinogen solution to a final concentration of 20 mg/mL, while polylysine was added to a thrombin solution to a final concentration of 20 mg/mL. Both solutions were 5 mL and were injected through a dual lumen catheter into subsegments of sheep lungs for a total of 10 mL per subsegment.
In a total of 4 sheep (Group 7 in FIG. 1), use of systemic heparin to complex polylysine in the circulation and reduce or prevent renal toxicity was attempted.
Using this precipitation methodology, polylysine related renal toxicity was prevented over a broad polylysine concentration range from 1 mg/mL to 10 mg/mL at chondroitin sulfate concentration of 1 to 5 mg/mL (Groups 9 to 13 in FIG. 1).
Lung volume reduction treatment was performed in 8 consecutive animals at 84 subseguential sites using a formulation containing 13 mg/mL of human fibrinogen, 5 mg/mL of sodium chondroitin sulfate, 5 mg/mL of poly-L-lysine, and polymerized in situ with 1000 U activated human thrombin (Group 13 in FIG. 1).

rats = assay: Lung volume reduction in rats, fibrin gel, lungs and kidneys evaluated after 1 week; type: in vivo; details: 200 U/mL thrombin
Method: (§1) Three rats were treated with 5 mg/mL poly(Lys, Glu) to evaluate whether the copolymer could be used to modulate local and/or systemic toxicity. Treatments contained 28.6 mg/mL fibrinogen polymerized with 200 U/mL thrombin. All rats were anesthetized and intubated orotracheally. A dual lumen catheter was placed into a target site in the lung with bronchoscopic guidance. The reagents were injected into the lung and the catheter was removed. Each animal was allowed to recover from anesthesia, and returned to its cage. After 1 week, all animals were euthanized. The extent of pleural scarring was assessed prior to lung removal from the chest cavity. The lungs were then removed en bloc, fully inflated, and evaluated visually to assess the extent of local parenchymal inflammation and scarring produced by treatment. The kidneys were also harvested and evaluated for the presence of cortical lesions and infarctions which can develop as a consequence of systemic toxicity following polycation adminstration.
as §1, with “4” for “Three”, “2.5” for “5”, “polyomithine and 3 were treated with 2.5 mg/mL polyomithine precipitated with 2.5 mg/mL chondroitin sulfate” for “poly(Lys, Glu)”, “precipitation” for “the copolymer”, “administration.” for “adminstration.”

[1] = 5 mg/mL poly(Lys, Glu) in 28.6 mg/mL fibrinogen
[2] = 100 mg/treatment in fibrin gel, 12 pulmonary subsegments (group 1)
[3] = 10 and 30 mg/treatment in fibrin gel (groups 2 and 3)
[4] = 2.5 mg/mL polyornithine in 28.6 mg/mL fibrinogen

chondroitin sulfate was tested, and the pulmonary responses (sheep lungs; fibrin gel containing 100 mg chondroitin sulfate, 12 subsegments (Group 5)) was “minimal”.

With heparin the “prevention of polylysine renal lesions” value (sheep lungs; systemic heparin to complex polylysine in the circulation, 4 sheep (Group 7)) was “did not prevent renal lesions”.

poly(Lys, Glu) [copolymer] was tested, and the “local pulmonary lesions / efficacy as lung volume reduction agent” value (rats; [1]) was “no significant local pulmonary lesions; also recorded: failed to demonstrate efficacy” and the “systemic toxicity, manifest as renal lesions” value (rats; [1]) was “no incidence of systemic toxicity; also recorded: did not show any systemic toxicity”.

With poly-L-lysine [polylysine] the lung injury (sheep lungs; [2]) was “severe lung injury”, the renal toxicity (sheep lungs; [2]) was “renal toxicity manifest as nephropathy and infarction” and the pulmonary responses (sheep lungs; [3]) was “acceptable pulmonary responses”. For the same substance, the renal toxicity (sheep lungs; [3]) was “associated with renal toxicity”, the “serum BUN or creatinine, urine analysis, urine protein-to-creatinine ratio” value (sheep lungs; animals with renal lesions at necropsy) was “No abnormalities” and the “time of occurrence of renal lesions after cationic exposure” value (sheep lungs; renal infarction with associated hemorrhage) was 3 to 7 days.

polyornithine was tested, and the local toxicity (rats; [4]) was “significant local toxicity” and the systemic toxicity (rats; [4]) was “systemic toxicity, manifest as renal lesions”.
